Measured values from patent US5252581A, “Substituted aminothienopyridines, pharmaceutical composition and use” (Hoechst-Roussel Pharmaceuticals Inc., priority 1992, dated 1993).
Where a name gives a salt, the structure may show the parent alone. Read-outs that look alike come from different tables or passages of the source.

Experiments:
serotonin (5HT) uptake = target: T1, serotonin (5HT) uptake (Rattus norvegicus, UniProt P31652); assay: ^3 H-Serotonin Uptake in Rat Whole Brain Synaptosomes; format: biochemical, rat (Wistar)
T1 construct: from tissue; host or cells: male Wistar rat whole brain minus cerebella, crude synaptosomes (S1)
T1 sequence (P31652 whole entry): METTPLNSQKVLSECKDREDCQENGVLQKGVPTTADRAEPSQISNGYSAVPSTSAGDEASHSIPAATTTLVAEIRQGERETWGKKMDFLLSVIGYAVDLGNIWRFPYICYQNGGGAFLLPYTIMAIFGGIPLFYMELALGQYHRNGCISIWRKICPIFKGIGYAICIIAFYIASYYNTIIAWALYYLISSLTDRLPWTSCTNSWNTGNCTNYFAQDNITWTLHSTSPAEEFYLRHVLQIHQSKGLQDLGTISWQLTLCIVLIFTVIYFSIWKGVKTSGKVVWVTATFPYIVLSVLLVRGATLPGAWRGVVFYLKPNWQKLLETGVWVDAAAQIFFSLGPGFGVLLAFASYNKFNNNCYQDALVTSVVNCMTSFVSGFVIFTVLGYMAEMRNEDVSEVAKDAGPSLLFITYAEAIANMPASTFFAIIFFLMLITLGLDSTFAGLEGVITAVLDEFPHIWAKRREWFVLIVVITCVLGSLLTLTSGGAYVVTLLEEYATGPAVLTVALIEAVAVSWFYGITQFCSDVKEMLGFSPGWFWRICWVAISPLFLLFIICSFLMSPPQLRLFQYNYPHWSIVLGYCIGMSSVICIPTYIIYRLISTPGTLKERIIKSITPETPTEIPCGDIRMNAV
Description: A. Animals: Male CR Wistar rats (100-125 g).
3. […] This is used to dilute the specific activity of radiolabeled 5HT.
The dilution factor is 0.8.
5. For most assays, a 1 mM solution of the test compound is made up in suitable solvent and serially diluted such that the final concentration in the assay ranges from 2×10^-8 to 2×10^-5 M. Seven concentrations are used for each assay.
Male Wistar rats are decapitated and the brain rapidly removed. […] Homogenization should be done with 4-5 up and down strokes at medium speeds to minimize synaptosome lysis. […] The supernatant (S1) is decanted and is used for uptake experiments.
Tubes are incubated at 37° C. under a 95% O2 /5% CO2 atmosphere for 5 minutes. For each assay, 3 tubes are incubated with 20 μl of vehicle at 0° C. in an ice bath. After incubation all tubes are immediately centrifuged at 4000 g for 10 minutes. The supernatant fluid is aspirated and the pellets dissolved by adding 1 ml of solubilizer (Triton X-100+50% EtOH, 1:4 v/v). The tubes are vigorously vortexed, decanted into scintillation vials, and counted in 10 ml of Liquiscint scintillation counting cocktail. Active uptake is the difference between cpm at 37° C. and 0° C. The percent inhibition at each drug concentration is the mean of three determinations. IC50 values are derived from log-probit analysis.

[1] = target: T2, NMDA associated strychnine-insensitive glycine modulatory site (Rattus norvegicus, UniProt P35439); assay: Enhancement of [^3 H]TCP Binding; format: biochemical, rat (Sprague Dawley); conditions: for Emax: read-out: Enhancement of [^3 H]TCP Binding, % maximal glycine response
T2 construct: prepared from cortical tissue obtained from male Sprague Dawley rats; from tissue; host or cells: male Sprague Dawley rat cortex, crude synaptosomal homogenate

[2] = target: T3, glycine binding site associated with the N-methyl-D-aspartate (NMDA) receptor complex (Rattus norvegicus, UniProt P35439); assay: Displacement of [^3 H]Glycine Binding; design: species or system rat (Wistar)
T3 construct: Cortices of male Wistar rats are dissected over ice; from tissue; host or cells: male Wistar rat cortex, Triton-treated membranes
Description: Aliquots of 20 μl to the assay tube will give a final concentration of 10^-3 M.
4. […] Aliquots of 50 μl are added to yield a final assay concentration of 10 nM.
6. […] A stock solution of Triton-X 100, 10% can be prepared and stored in the refrigerator. Dilute 1.0 ml of Triton-X 100 to 10.0 ml with distilled water. On the day of the assay, the tissue homogenate (1:15 dilution) is preincubated with an aliquot of the 10% solution to give a final concentration of 0.04% (v/v).
Three cortices are pooled for one preparation.
1. Prepare assay tubes in triplicate.
2. Following the addition of the tissue, the tubes are incubated for 20 minutes in an ice-bath at 0°-4° C.
3. […] IC50 values for the competing compound are calculated by log-probit analysis of the data.

5HT3 Receptor = target: T4, 5HT3 Receptor (Homo sapiens, UniProt P46098); assay: 5HT3 Receptor Binding Assay
T4 sequence (P46098 24-478): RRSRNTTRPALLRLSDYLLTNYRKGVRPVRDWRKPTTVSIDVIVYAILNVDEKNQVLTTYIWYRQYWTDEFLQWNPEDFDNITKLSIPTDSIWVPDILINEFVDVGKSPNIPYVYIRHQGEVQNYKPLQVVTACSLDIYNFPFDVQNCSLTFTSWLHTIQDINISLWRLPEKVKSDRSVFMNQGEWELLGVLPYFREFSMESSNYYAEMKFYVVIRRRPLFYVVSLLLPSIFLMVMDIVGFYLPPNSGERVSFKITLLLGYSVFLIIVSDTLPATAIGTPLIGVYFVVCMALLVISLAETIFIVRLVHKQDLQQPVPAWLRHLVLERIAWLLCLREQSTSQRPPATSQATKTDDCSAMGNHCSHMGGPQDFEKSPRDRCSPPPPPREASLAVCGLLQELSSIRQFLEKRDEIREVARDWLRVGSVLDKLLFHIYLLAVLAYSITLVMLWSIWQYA

[3] = target: T5, ^3 H-Norepinephrine reuptake (Rattus norvegicus, UniProt Q63380); assay: Inhibition of Biogenic Amine Reuptake, ^3 H-Norepinephrine (WB); format: biochemical
T5 construct: from tissue; host or cells: whole brain (WB), rat inferred
T5 sequence (Q63380 1-617): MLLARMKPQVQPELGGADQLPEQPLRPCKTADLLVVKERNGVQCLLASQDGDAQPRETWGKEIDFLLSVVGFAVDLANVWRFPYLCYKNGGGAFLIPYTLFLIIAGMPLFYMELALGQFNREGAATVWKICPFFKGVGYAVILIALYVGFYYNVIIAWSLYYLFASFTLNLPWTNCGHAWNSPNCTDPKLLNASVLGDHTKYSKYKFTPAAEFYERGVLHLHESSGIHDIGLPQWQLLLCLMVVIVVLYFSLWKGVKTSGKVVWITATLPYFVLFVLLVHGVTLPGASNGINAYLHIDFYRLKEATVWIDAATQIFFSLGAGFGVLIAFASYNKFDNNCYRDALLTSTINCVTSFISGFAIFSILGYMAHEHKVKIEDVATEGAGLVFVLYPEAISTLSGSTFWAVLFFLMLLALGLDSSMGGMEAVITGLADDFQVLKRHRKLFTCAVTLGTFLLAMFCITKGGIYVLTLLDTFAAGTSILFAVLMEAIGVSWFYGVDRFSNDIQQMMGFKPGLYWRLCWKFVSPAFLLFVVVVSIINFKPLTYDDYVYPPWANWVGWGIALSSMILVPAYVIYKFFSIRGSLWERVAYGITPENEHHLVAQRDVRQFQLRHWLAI

^3 H-Dopamine reuptake = target: T6, ^3 H-Dopamine reuptake (Rattus norvegicus, UniProt P23977); assay: Inhibition of Biogenic Amine Reuptake, ^3 H-Dopamine (Str); format: biochemical; conditions: str. = striatum
T6 construct: str. = striatum; from tissue; host or cells: striatum, rat inferred
T6 sequence (P23977 whole entry): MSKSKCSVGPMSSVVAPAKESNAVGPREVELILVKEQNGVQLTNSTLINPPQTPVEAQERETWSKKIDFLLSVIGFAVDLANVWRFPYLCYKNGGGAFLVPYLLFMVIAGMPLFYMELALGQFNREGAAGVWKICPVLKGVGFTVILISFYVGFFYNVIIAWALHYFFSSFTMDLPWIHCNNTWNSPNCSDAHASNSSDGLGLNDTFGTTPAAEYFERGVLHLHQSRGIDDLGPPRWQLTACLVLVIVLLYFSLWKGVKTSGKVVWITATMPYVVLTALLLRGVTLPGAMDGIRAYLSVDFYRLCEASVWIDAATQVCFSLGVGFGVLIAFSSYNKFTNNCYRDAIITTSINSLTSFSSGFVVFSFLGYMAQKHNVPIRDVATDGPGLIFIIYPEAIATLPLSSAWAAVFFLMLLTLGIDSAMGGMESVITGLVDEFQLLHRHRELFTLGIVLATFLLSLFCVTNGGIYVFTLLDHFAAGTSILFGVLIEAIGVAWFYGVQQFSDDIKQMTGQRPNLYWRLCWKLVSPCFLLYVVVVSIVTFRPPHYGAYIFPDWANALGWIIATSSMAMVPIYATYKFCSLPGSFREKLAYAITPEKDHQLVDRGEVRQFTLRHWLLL

SMILES: CCCN(c1ccncc1)c1csc2cnccc12 [3-(Propyl-4-pyridinylamino)thieno[2,3-c]pyridine]
- IC50 (serotonin (5HT) uptake; […]): 0.54 µM

SMILES: NCC(=O)Nc1csc2ncccc12 [2-Amino-N-(thieno[2,3-b]pyridin-3-yl)acetamide]
- EC50 ([1]; rat cortical homogenate, 2.5 nM [^3 H]TCP, 10^-7 M L-glutamic acid): 14.4 µM
- Emax [1]: 39%
- IC50 [2]: 21.8 µM

SMILES: CCCN(c1ccncc1)c1csc2ncccc12 [3-(Propyl-4-pyridinylamino)-thieno[2,3-b]-pyridine hydrochloride]
- IC50 (serotonin (5HT) uptake): 0.071 µM
- IC50 (5HT3 Receptor): 4.6 µM
- IC50 [3]: 0.71 µM

SMILES: N[C@@H]1CONC1=O [D-cycloserine, reference compound]
- Emax [1]: 80%

SMILES: CN(C)CCCN1c2ccccc2CCc2ccc(Cl)cc21 [Clomipramine, reference compound]
- IC50 (^3 H-Dopamine reuptake): 31.5 µM
- IC50 (5HT3 Receptor): > 10 µM

SMILES: NCC(=O)O [Glycine, glycine, reference compound]
- Emax [1]: 100%
